Patent US8236827B2, “Compounds” (Spear Therapeutics Limited, priority 2009, dated 2012)

Key:
[1] = tested on: wild-type CHO cells; experiment: Cytotoxicity (MTS) in wild-type CHO cells; format: cell-based, Chinese Hamster; settings: for IC50: Cricetulus griseus, CHO, 96 h, MTS
Procedure: CHO cells: Chinese Hamster Ovary (CHO) DUKXB11 cells were grown under standard cell culture conditions in α-MEM supplemented with 10% FCS, 1 unit/ml each of hypoxanthine and thymidine, and penicillin (100 IU/ml) and streptomycin (100 μg/ml) according to literature methods (Ding S, et al., Arch. Biochem. Biophys., 348: 403-410, 1997, the contents of which are incorporated herein by reference). Cells were grown at 37° C. in a humidified atmosphere plus 5% CO2.
(§1) A single cell suspension of CHO, CHO/CYP1A1 or CHO/CYP1B1 in 100 μl of the required cell culture medium was seeded onto 96-well plates at a cell density of 1500 cells per well and placed in an incubator for 24 h at 37° C. The stock solution of test compound in DMSO was then added to give a concentration range of 100, 30, 10, 3, 1, 0.3, 0.1, 0.03, 0.01, 0.003, 0.001, 0 μM. The final concentration of DMSO 0.2% was found not to affect the growth characteristics of the various CHO cell lines. The cells were incubated with the test compound for 96 h after which all the medium was aspirated and replaced with 100 μl of fresh medium to compensate for the loss of medium due to evaporation. The cells were incubated with 20 μl of the MTS assay reagent for 1.5 h and the absorbance per well at 510 nm measured using a plate reader. The mean absorbance and standard deviation for each test compound concentration was calculated versus a series of controls including (a) cells plus medium, (b) cell plus medium containing DMSO 0.2%, (c) medium alone, and (d) medium containing DMSO 0.2% and a range of test compound concentrations from 0 to 100 μM.
(§2) The MTS assay is a homogeneous, colorimetric method for determining the number of viable cells in proliferation, cytotoxicity or chemosensitivity assays (Cali J J, et al., “Luminescence-Based Methods and Probes for Measuring Cytochrome P450 Activity”, pp. 1-29. Promega Corporation, United States, 2004, the contents of which are incorporated herein by reference). The assay is composed of solutions of tetrazolium compound [3-(4,5-dimethylthiazol-2-yl)-5-(3-carboxymethoxyphenyl)-2-(4-sulfophenyl)-2H-tetrazolium, inner salt; MTS] and an electron coupling reagent (phenazine methosulfate) PMS. MTS is bioreduced by cells into a formazan product that is soluble in tissue culture medium. The absorbance of the formazan product at 510 nm can be directly measured from 96-well assay plates. The quantity of formazan product as measured by the amount of absorbance at 490 or 510 nm is directly proportional to the number of living cells in culture.

[2] = Cytotoxicity (MTS) in CHO/CYP1A1 cells; format: cell-based, Chinese Hamster; settings: Chinese hamster; 96 h, MTS
Procedure: (§3) CHO/CYP1A1 and CHO/CYP1B1 cells: CHO cells containing recombinant CYP1A1 and recombinant CYP1B1 co-expressing P450 reductase, namely (CHO/CYP1A1) and (CHO/CYP1B1) respectively, were cultured using the standard culture medium for CHO cells supplemented with 0.4 mg/ml G418 disulfate salt and 0.3 μM methotrexate (Sigma/Aldrich Co., Gillingham, Dorset, UK) according to methods described in the literature (ibid.) Cells were grown at 37° C. in a humidified atmosphere plus 5% CO2.
as §1, §2

[3] = tested on: CHO/CYP1A1 cells; experiment: Cytotoxicity (MTS) in CHO/CYP1A1 cells; format: cell-based, Chinese Hamster
Procedure: as §3, §1, §2

[4] = Cytotoxicity (MTS) in CHO/CYP1B1 cells; format: cell-based, Chinese Hamster; settings: Chinese hamster
Procedure: as §3, §1, §2

[5] = tested on: CHO/CYP1B1 cells; experiment: Cytotoxicity (MTS) in CHO/CYP1B1 cells; format: cell-based, Chinese Hamster
Procedure: as §3, §1, §2

[6] = target: C-Met (HGFR) (Homo sapiens, UniProt P08581); experiment: Cerep kinase screen; format: biochemical; settings: read-out: % Inhibition of Control
Chain of C-Met (HGFR) (P08581 25-1390): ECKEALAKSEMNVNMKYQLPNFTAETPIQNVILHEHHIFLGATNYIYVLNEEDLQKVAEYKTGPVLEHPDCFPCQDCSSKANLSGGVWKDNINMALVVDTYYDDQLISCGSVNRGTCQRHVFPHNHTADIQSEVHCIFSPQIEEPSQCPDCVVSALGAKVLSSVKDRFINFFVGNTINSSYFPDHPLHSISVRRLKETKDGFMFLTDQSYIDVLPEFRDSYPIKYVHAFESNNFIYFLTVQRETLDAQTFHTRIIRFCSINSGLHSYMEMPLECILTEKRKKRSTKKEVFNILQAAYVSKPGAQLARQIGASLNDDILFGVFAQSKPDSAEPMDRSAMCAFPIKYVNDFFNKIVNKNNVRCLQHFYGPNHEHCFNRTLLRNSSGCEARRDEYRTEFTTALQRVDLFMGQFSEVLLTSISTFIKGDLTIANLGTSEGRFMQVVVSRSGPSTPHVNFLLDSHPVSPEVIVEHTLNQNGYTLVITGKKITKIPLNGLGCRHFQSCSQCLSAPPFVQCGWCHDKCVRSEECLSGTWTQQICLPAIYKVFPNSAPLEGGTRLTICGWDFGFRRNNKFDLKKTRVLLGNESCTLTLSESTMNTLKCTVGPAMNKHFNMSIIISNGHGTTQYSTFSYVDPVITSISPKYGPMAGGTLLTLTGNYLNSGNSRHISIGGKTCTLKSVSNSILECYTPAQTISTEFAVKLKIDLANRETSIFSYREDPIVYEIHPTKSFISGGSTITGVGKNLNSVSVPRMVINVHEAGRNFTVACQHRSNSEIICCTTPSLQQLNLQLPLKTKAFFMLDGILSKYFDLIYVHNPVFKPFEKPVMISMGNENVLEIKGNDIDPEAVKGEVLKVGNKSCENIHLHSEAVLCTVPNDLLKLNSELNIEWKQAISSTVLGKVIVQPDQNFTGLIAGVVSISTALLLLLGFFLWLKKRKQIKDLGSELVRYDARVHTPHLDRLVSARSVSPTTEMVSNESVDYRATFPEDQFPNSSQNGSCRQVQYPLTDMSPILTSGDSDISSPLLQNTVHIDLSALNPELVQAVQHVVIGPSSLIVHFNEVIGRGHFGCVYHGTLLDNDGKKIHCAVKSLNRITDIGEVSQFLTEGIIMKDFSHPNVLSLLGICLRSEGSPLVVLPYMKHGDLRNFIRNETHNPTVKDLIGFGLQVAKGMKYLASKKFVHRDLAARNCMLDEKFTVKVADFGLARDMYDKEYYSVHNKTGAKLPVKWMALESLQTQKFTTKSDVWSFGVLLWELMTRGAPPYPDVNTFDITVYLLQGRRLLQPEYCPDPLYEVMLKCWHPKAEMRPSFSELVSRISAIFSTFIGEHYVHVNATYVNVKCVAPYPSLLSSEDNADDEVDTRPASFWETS
Procedure: (§4) Kinase screening was performed by Cerep Laboratories (Celle l′Evescault, France). Compounds were screened in duplicate at a single concentration (10 μM). The results, set forth in Table 4 below, are expressed as percent inhibition of control specific activity: {100−[(measured specific activity/control specific activity)×100]} obtained in the presence of Compound XI and Compound V. ATP concentrations correspond to the ATP Km value for each individual kinase (Cerep, private communication). In each experiment, a reference compound was tested concurrently with Compound XI and Compound V in order to assess the assay reliability. IC50 values for the reference compounds were within accepted limits (±0.5 log units) of the historic average.

[7] = target: CSK (Homo sapiens, UniProt P41240); experiment: Cerep kinase screen; format: biochemical; settings: read-out: % Inhibition of Control
Chain of CSK (P41240 whole entry, species assumed): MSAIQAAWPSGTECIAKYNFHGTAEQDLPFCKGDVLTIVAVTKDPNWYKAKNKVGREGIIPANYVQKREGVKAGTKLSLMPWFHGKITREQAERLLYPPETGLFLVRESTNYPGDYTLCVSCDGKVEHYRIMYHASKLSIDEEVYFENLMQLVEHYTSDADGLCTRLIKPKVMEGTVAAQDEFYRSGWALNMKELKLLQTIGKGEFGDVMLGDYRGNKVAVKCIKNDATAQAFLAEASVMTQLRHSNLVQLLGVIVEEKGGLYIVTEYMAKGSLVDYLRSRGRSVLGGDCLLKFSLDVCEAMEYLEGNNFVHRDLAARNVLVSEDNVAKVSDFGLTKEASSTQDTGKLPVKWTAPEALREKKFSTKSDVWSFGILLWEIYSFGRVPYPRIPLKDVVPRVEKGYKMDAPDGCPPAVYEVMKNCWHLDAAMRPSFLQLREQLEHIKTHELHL
Procedure: as §4

[8] = target: FGFR2 (Homo sapiens, UniProt P21802); experiment: Cerep kinase screen; format: biochemical; settings: read-out: % Inhibition of Control
Chain of FGFR2 (P21802 22-821, species assumed): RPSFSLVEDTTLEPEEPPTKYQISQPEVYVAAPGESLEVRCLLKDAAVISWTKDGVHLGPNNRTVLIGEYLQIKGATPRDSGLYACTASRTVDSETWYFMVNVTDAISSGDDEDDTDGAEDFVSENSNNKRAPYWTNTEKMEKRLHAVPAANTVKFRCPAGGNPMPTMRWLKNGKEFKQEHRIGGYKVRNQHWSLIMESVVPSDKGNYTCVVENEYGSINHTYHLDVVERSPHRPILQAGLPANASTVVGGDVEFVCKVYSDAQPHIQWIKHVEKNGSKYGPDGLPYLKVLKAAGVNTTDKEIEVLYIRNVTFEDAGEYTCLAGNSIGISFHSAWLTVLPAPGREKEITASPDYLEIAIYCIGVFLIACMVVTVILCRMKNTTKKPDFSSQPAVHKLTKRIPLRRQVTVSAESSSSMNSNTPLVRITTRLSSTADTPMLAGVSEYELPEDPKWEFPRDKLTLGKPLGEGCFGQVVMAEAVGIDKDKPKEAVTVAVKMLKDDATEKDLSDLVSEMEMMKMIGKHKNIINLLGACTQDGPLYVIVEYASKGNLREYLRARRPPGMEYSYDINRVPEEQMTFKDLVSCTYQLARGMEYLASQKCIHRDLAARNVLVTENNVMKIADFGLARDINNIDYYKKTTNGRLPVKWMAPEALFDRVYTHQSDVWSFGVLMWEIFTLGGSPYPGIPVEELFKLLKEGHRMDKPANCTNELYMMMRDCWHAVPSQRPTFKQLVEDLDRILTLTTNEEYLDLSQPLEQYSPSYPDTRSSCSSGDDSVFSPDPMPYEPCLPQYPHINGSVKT
Procedure: as §4

[9] = target: FGFR4 (Homo sapiens, UniProt P22455); experiment: Cerep kinase screen; format: biochemical; settings: read-out: % Inhibition of Control
Procedure: as §4

[10] = target: FLT-1 (Homo sapiens, UniProt P17948); experiment: Cerep kinase screen; format: biochemical; settings: read-out: % Inhibition of Control
Procedure: as §4

[11] = target: FLT-3 (Homo sapiens, UniProt P36888); experiment: Cerep kinase screen; format: biochemical; settings: read-out: % Inhibition of Control
Procedure: as §4

[12] = target: Fyn (Homo sapiens, UniProt P06241); experiment: Cerep kinase screen; format: biochemical; settings: read-out: % Inhibition of Control
Chain of Fyn (P06241 whole entry, species assumed): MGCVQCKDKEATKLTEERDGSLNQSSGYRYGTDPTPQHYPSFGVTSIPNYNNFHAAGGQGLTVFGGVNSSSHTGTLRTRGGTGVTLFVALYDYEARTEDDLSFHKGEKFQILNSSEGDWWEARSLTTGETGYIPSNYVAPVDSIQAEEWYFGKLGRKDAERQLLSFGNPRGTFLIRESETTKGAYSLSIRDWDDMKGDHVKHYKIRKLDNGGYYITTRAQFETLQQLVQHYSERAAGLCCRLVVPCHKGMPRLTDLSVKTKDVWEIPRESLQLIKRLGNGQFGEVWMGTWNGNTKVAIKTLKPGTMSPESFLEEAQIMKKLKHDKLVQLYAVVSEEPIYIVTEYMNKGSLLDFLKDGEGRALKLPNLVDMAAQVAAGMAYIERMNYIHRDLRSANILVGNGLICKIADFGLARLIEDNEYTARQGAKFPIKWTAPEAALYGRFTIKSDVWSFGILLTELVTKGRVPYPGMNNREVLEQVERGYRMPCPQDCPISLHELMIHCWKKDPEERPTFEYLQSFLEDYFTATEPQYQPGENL
Procedure: as §4

[13] = target: KDR (VEGFR2) (Homo sapiens, UniProt P35968); experiment: Cerep kinase screen; format: biochemical; settings: read-out: % Inhibition of Control
Procedure: as §4

[14] = target: Lyn (Homo sapiens, UniProt P07948); experiment: Cerep kinase screen; format: biochemical; settings: read-out: % Inhibition of Control
Procedure: as §4

[15] = target: PDGFRβ (Homo sapiens, UniProt P09619); experiment: Cerep kinase screen; format: biochemical; settings: read-out: % Inhibition of Control
Procedure: as §4

[16] = target: CYP2C19 (Homo sapiens, UniProt P33261); experiment: CYP phenotyping, metabolic stability; format: in vitro ADME; settings: CYP2C19 (10 pm/mL); 1 μM; after 60 minutes
Chain of CYP2C19 (P33261 whole entry, species assumed): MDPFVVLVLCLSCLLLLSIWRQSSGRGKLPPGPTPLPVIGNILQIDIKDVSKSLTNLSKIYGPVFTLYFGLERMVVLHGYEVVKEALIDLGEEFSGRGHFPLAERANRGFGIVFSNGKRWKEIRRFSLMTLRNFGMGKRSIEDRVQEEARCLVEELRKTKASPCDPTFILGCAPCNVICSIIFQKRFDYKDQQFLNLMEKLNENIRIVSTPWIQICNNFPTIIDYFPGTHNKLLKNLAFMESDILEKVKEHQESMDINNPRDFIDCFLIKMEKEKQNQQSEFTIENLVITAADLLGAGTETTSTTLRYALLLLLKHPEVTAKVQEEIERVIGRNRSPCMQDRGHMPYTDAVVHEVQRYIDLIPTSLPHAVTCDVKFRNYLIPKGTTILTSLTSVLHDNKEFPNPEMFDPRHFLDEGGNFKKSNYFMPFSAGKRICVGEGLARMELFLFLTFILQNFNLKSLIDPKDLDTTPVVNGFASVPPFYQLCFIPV
Procedure: (§5) Compounds V and II were exposed to a panel of six CYPs (see Table 5 below).
(§6) CYP metabolism studies were performed by Cerep Laboratories (Redmond, Wash., USA). Compounds were screened in duplicate at 1 μM in the presence of CYP enzyme, NADP (1.3 mM), D-Glucose-6-phosphate (3.3 mM) and Glucose-6-phosphate dehydrogenase. Following incubation at 0 and 60 minutes, parent compound levels were determined using standard HPLC/MS/MS procedures. The results are expressed as percent parent compound remaining after 60 minutes.

[17] = target: CYP2C9 (Homo sapiens, UniProt P11712); experiment: CYP phenotyping, metabolic stability; format: in vitro ADME; settings: CYP2C9 (10 pm/mL); 1 μM; after 60 minutes
Procedure: as §5, §6

[18] = target: CYP2D6 (Homo sapiens, UniProt P10635); experiment: CYP phenotyping, metabolic stability; format: in vitro ADME; settings: CYP2D6 (10 pm/mL); 1 μM; after 60 minutes
Procedure: as §5, §6

[19] = target: CYP3A4 (Homo sapiens, UniProt P08684); experiment: CYP phenotyping, metabolic stability; format: in vitro ADME; settings: CYP3A4 (10 pm/mL); 1 μM; after 60 minutes
Chain of CYP3A4 (P08684 whole entry, species assumed): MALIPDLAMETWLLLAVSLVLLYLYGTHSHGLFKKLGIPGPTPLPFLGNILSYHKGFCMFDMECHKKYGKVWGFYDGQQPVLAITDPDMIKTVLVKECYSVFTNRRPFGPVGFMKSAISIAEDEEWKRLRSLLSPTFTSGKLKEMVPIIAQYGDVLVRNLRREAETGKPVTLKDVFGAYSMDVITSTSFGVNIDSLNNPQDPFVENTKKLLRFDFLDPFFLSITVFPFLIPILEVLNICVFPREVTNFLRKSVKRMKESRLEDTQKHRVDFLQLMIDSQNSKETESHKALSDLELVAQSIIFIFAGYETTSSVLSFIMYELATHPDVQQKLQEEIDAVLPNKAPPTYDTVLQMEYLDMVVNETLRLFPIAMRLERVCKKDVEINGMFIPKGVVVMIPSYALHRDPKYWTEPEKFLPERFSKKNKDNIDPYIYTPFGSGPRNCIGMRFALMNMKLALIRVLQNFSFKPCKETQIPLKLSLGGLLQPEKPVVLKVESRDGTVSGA
Procedure: as §5, §6

[20] = target: T1, CYP1A2 (Homo sapiens, UniProt P05177); experiment: CYP phenotyping, metabolic stability; format: in vitro ADME; settings: CYP1A2 (40 pm/mL); 1 μM; after 60 minutes
T1 sequence (P05177 1-516): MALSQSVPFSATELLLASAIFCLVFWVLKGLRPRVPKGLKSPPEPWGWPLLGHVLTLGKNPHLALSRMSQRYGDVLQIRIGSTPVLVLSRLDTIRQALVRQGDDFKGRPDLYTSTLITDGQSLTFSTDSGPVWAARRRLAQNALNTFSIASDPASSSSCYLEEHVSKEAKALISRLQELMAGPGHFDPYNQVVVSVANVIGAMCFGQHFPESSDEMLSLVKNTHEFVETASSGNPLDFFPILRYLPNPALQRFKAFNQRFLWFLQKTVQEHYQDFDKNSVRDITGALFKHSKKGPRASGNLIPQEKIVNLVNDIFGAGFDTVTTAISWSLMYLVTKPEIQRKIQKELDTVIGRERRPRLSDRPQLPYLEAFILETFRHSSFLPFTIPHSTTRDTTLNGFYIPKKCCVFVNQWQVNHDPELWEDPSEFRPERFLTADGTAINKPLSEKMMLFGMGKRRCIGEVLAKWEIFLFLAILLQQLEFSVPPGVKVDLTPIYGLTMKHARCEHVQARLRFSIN
Procedure: (§7) As mentioned above, a feature of the compounds of the invention is their metabolism by CYP1B1 which is expressed at high frequency in a wide range of human cancers of different histogenetic types, but not in normal tissues. […] Compounds V and II were exposed to a panel of six CYPs (see Table 5 below).
as §6

[21] = target: CYP3A5 (Homo sapiens, UniProt P20815); experiment: CYP phenotyping, metabolic stability; format: in vitro ADME; settings: CYP3A5 (10 pm/mL)
Chain of CYP3A5 (P20815 whole entry, species assumed): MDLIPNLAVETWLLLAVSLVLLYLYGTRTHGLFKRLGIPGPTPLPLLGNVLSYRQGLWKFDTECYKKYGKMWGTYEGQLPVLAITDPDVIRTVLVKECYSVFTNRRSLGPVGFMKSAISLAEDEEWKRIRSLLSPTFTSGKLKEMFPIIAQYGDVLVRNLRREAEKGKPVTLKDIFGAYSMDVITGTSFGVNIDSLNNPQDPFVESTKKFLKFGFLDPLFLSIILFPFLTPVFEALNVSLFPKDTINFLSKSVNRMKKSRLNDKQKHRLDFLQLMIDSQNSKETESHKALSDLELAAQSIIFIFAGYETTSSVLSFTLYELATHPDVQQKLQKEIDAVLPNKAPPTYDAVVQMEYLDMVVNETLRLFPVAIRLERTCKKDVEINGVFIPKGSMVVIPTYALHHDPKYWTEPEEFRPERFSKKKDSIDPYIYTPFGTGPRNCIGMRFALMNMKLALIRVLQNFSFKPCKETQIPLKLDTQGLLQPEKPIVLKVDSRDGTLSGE
Procedure: as §7, §6

[22] = text of b216, read-out: IC50, proliferation of CHO/CYP1B1 cells

With `COc1ccc(-c2cc(-c3ccc4c(c3)OCO4)cc(=O)[nH]2)cc1OC` [Compound V] the “toxicity to wild-type CHO cells (in words)” value [1] was “non toxic”, the IC50 [1] was greater than 100000 nM and the IC50 at 96 h [2] was greater than 100000 nM. The “toxicity / activity in CYP1A1 expressing CHO cells (in words)” value (“toxicity / activity” below) [3] was “non toxic”, the IC50 at 96 h [4, 22] was 80 nM and the “activity against CHO/CYP1B1 cells (in words)” value [5] was “strongly inhibit proliferation”. For the same compound, the inhibition at 10 µM [6] was -5%, the inhibition at 10 µM [7] was 4% and the inhibition at 10 µM [8] was 13%. It also gave an inhibition at 10 µM [9] of -3%, an inhibition at 10 µM [10] of 11% and an inhibition at 10 µM [11] of 21%. It also gave an inhibition at 10 µM [12] of 25%, an inhibition at 10 µM [13] of 19% and an inhibition at 10 µM [14] of -1%. For the same compound, the inhibition at 10 µM [15] was 7%, the “Mean Parent Remaining (%)” value [16] was 111% and the “Mean Parent Remaining (%)” value [17] was 109%. For the same compound, the “Mean Parent Remaining (%)” value [18] was 100%, the “Mean Parent Remaining (%)” value [19] was 93% and the “Mean Parent Remaining (%)” value [20] was 71%. For the same compound, the “Mean Parent Remaining (%)” value ([21]; 1 μM, after 60 minutes) was 87%.
With `Cc1ncc2n1-c1ccc(Cl)cc1C(c1ccccc1F)=NC2` [Midazolam, reference compound] the “% Reference Compound Remaining” value ([21]; reference compound) was 1%.
In the case of `COc1ccc(-c2cc(-c3ccc4c(c3)OCO4)cc(=O)[nH]2)cc1` [Compound VI], the “toxicity to wild-type CHO cells (in words)” value [1] is reported as “non toxic”, the IC50 [1] is reported as greater than 100000 nM and the IC50 at 96 h [2] is reported as greater than 100000 nM. The “toxicity / activity” value [3] was “non toxic”, the IC50 at 96 h [4, 22] was 500 nM and the “activity against CHO/CYP1B1 cells (in words)” value [5] was “strongly inhibit proliferation”.
With `COc1ccc(-c2cc(-c3ccc4c(c3)OCO4)cc(=O)[nH]2)c(OC)c1` [Compound III] the IC50 [1] was 6110 ± 340 nM, the IC50 at 96 h [2] was 950 ± 350 nM and the “toxicity / activity” value [3] was “active”. The IC50 at 96 h ([4]; 96 h, MTS, read-out: CHO/CYP1B1 IC50) was 40 ± 30 nM and the “activity against CHO/CYP1B1 cells (in words)” value [5] was “active”.
